Laboratory results taken from patent US5739130A, “Heterotricyclic derivatives, process for their preparation and pharmaceutical compositions containing them” (Fujisawa Pharmaceutical Co., Ltd., priority 1992, dated 1998).

How the values were obtained:
[1] = system: B16 melanoma cells; assay: Inhibitory activity on B16 melanoma metastases; type: in vivo, Mouse; conditions: C57BL/6 mice, day 16, P<0.01 vs control
Description: Inhibitory activity on B16 melanoma metastases
According to the experimental schedule as exemplified below, the experiment was carried out.
Mouse B16 melanoma cells (5×10^5 cells) were inoculated intravenously to 8 weeks old female (C57BL/6) mice on day 0.
The animals were sacrificed at day 16 and tumor colonies established in lung were counted in a dissection microscope.
The test compound was administered orally once a day.
Effects of test compound on tumors were assessed by the numbers of colonies compared to control. [drawing 8] 2. Test compound

[2] = system: anti-single strand DNA antibodies; assay: Inhibitory activity on the production of an anti-DNA-antibody (GVH disease mice, ELISA); type: in vivo, (57BL/6×DBA/2)F1; conditions: 32 mg/kg orally once a day for 8 weeks, measured 4 weeks after last cell injection, P<0.05 vs control
Description: (§1) Inhibitory activity on the production of an anti-DNA-antibody and on the leakage of a proteinuria
(§2) Six weeks old female (57BL/6×DBA/2)F1 and DBA/2 mice were used. Graft-versus-host (GVH) disease was induced in (57BL/6×DBA/2)F1mice with two injections of DBA/2 spleen cells given 5 days apart. Each injection contained 5×10^7 cells. From 3 days after the second cell injection, drug was administered orally once a day for 8 weeks.
(§3) As an indication of autoimmune disease, 4 weeks after the last cell injection anti-single strand DNA antibodies were measured by enzyme-linkedimmunosorbent assay (ELISA) using the procedure reported by T. Fujitsu et al. (International J. Immunopharmacol, 8 897 (1986)). To assess the renal disease, 8 weeks after the last cell injection proteinuria were measured. The concentration of serum albumin in the urine was determined by the single radial immunodiffusion method using rabbit anti-mouse serum albumin antiserum. Ten mice were used per group. The activity of the compound was expressed as a % inhibition of anti-DNA antibody and proteinuria.

[3] = system: proteinuria (serum albumin in the urine); assay: Inhibitory activity on the leakage of a proteinuria (GVH disease mice, serum albumin in urine); type: in vivo, (57BL/6×DBA/2)F1; conditions: 32 mg/kg orally once a day for 8 weeks, measured 8 weeks after last cell injection, P<0.01 vs control
Description: as §1, §2, §3

SMILES: COc1cc2c3c(c1)c(O)c(C(=O)N1CCc4ccccc41)c(=O)n3CCO2 [2,3-Dihydro-7-hydroxy-9-methoxy-6-(1-indolinylcarbonyl)-5-oxo-5H-pyrido[1,2,3-de]-1,4-benzoxazine]
- inhibition (%) of tumor colonies in lung ([1]; 32 mg/kg orally once a day): 36%
- inhibition (%) of tumor colonies in lung ([1]; 100 mg/kg orally once a day): 59%
- Inhibition (%) anti-DNA antibody [2]: 86%
- Inhibition (%) proteinuria [3]: 99%
